10 compounds from PubChem BioAssay (NCI) can be followed below.

Some test systems named below: BT-549 breast; CAKI-1 renal; NCI-H522 lung; OVCAR-8 ovarian; RPMI-8226 leukemia; SF-268 CNS; SF-539 CNS; SNB-75 CNS; SR leukemia; SW-620 colon.
Holding throughout (assay): growth of human tumour cells (NCI), 48 h

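Dose response: 5 concentrations. Exposure: 48 h. Format: 96-well plates. Endpoint: linear interpolation; highest concentration if not reached. GI50 is the concentration that inhibits growth by half. TGI: concentration producing complete growth inhibition.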

As for `O=C1CSC(=S)N1Cc1cccnc1`, the GI50 with BT-549 breast is 18.6 µM; in the experiment with CAKI-1 renal, 12.4 µM; in the experiment on NCI-H522 lung it was 2.22 µM; with OVCAR-8 ovarian, 11.3 µM; with RPMI-8226 leukemia it was 3.35 µM; in the experiment with SF-268 CNS it was 5.75 µM. Also, the GI50 in the experiment with SF-539 CNS is 6.33 µM; with SNB-75 CNS, 16.2 µM; in the experiment with SR leukemia, 3.56 µM; with SW-620 colon it was 4.13 µM. The TGI with BT-549 breast was 44.3 µM; in the experiment with CAKI-1 renal, 33.4 µM; in the experiment on NCI-H522 lung, 5.83 µM; in the experiment on OVCAR-8 ovarian, 38 µM; in the experiment with RPMI-8226 leukemia it was 17.1 µM; with SF-268 CNS, 23.3 µM. Moreover, the TGI is 23.4 µM in the experiment with SF-539 CNS, 72.5 µM in the experiment with SNB-75 CNS, above 100 µM in the experiment on SR leukemia and 16.8 µM in the experiment on SW-620 colon.
Consider `Cc1cc(NCCCCNc2ccnc3cc(Cl)ccc23)nc(Nc2ccc(C(=O)N3CCCC3)cc2)n1`, for which the GI50 in the experiment on BT-549 breast was 1.83 µM; in the experiment on CAKI-1 renal, 2.06 µM; with NCI-H522 lung, 2.16 µM; in the experiment with OVCAR-8 ovarian it was 3.14 µM; with RPMI-8226 leukemia, 1.34 µM; with SF-268 CNS it was 2.1 µM. Also, the GI50 with SF-539 CNS is 1.74 µM; in the experiment on SNB-75 CNS, 1.91 µM; in the experiment with SR leukemia, 0.267 µM; in the experiment on SW-620 colon, 1.7 µM. The TGI in the experiment with BT-549 breast was 4.38 µM; with CAKI-1 renal, 5.6 µM; with NCI-H522 lung it was 4.87 µM; in the experiment on OVCAR-8 ovarian, 11.2 µM; in the experiment on RPMI-8226 leukemia it was 5.3 µM; with SF-268 CNS it was 6.21 µM. Further, the TGI in the experiment on SF-539 CNS amounted to 3.54 µM; in the experiment on SNB-75 CNS it was 3.76 µM; in the experiment with SR leukemia it was 1.37 µM; in the experiment with SW-620 colon, 3.5 µM.
Take `O=C(N/N=c1/ccoc2cccnc12)N1CCN(c2ncccn2)CC1`: the GI50 in the experiment on BT-549 breast was 0.321 µM; in the experiment with CAKI-1 renal it was 0.425 µM; with NCI-H522 lung, 1.02 µM; in the experiment on OVCAR-8 ovarian it was 0.031 µM; in the experiment on RPMI-8226 leukemia, below 0.01 µM; in the experiment with SF-268 CNS, 0.795 µM. The GI50 is 1.39 µM in the experiment with SF-539 CNS, 1.63 µM in the experiment on SNB-75 CNS, 0.153 µM in the experiment on SR leukemia and below 0.0131 µM in the experiment with SW-620 colon. Further, the TGI was 3.37 µM with BT-549 breast; 7.64 µM in the experiment on CAKI-1 renal; 17.2 µM in the experiment on NCI-H522 lung; 6.67 µM in the experiment on OVCAR-8 ovarian; 2.04 µM in the experiment with RPMI-8226 leukemia; 15.1 µM in the experiment on SF-268 CNS. Also, the TGI in the experiment with SF-539 CNS is 9.58 µM; with SNB-75 CNS, 9.33 µM; with SR leukemia, 15.6 µM; with SW-620 colon it was 10.6 µM.
In the case of `CC1CC(C)/C(=N/NC(N)=O)C(C(O)CC2CCC(=O)NC2=O)C1` (stereo not given), the GI50 was 7.08 µM in the experiment with BT-549 breast; 1.22 µM with CAKI-1 renal; 1.7 µM with NCI-H522 lung; 2.71 µM in the experiment with OVCAR-8 ovarian; 6.77 µM in the experiment with RPMI-8226 leukemia; 2.98 µM with SF-268 CNS. Moreover, the GI50 is 3.07 µM in the experiment on SF-539 CNS, 4.26 µM in the experiment on SNB-75 CNS, 8.1 µM in the experiment with SR leukemia and 2.9 µM in the experiment on SW-620 colon. Moreover, the TGI was above 100 µM in the experiment with BT-549 breast; 20.3 µM with CAKI-1 renal; 18.1 µM in the experiment with NCI-H522 lung; 57.5 µM with OVCAR-8 ovarian; 94.1 µM with RPMI-8226 leukemia; 45.1 µM with SF-268 CNS. Further, the TGI in the experiment on SF-539 CNS was 39.8 µM; in the experiment with SNB-75 CNS, above 100 µM; in the experiment on SR leukemia it was above 100 µM; in the experiment on SW-620 colon, above 100 µM.
Turning to `O=C(Nc1ccc(Cl)cc1)c1ccc([N+](=O)[O-])o1`, the GI50 is 1.9 µM with BT-549 breast; 2.34 µM with CAKI-1 renal; 0.642 µM in the experiment with NCI-H522 lung; 2.99 µM in the experiment on OVCAR-8 ovarian; 3.72 µM in the experiment on RPMI-8226 leukemia; 2.98 µM in the experiment on SF-268 CNS. The GI50 is 2.22 µM in the experiment on SF-539 CNS, 1.63 µM with SNB-75 CNS, 0.553 µM in the experiment with SR leukemia and 1.12 µM with SW-620 colon. Moreover, the TGI with BT-549 breast came to 4.06 µM; in the experiment with CAKI-1 renal it was 10.1 µM; with NCI-H522 lung it was 1.76 µM; in the experiment on OVCAR-8 ovarian, 12.8 µM; in the experiment on RPMI-8226 leukemia, 38.1 µM; with SF-268 CNS, 11.8 µM. Also, the TGI with SF-539 CNS was 4.9 µM; with SNB-75 CNS, 5.38 µM; in the experiment on SR leukemia, 16.5 µM; in the experiment on SW-620 colon it was 2.68 µM.
With `O=C1Nc2ccccc2/C1=C/c1ccccc1`, the TGI was 31.2 µM in the experiment on BT-549 breast; above 100 µM in the experiment with CAKI-1 renal; 33.9 µM in the experiment on NCI-H522 lung; 66.1 µM in the experiment on OVCAR-8 ovarian; 77.7 µM in the experiment on RPMI-8226 leukemia; 35.1 µM in the experiment on SF-268 CNS. Further, the TGI in the experiment with SF-539 CNS is 42.6 µM; in the experiment with SNB-75 CNS, 33.8 µM; in the experiment on SR leukemia, 48.1 µM; in the experiment with SW-620 colon, above 100 µM.
Regarding `Cc1ccc(NSc2ccccc2[N+](=O)[O-])cc1`, the GI50 is 2.21 µM in the experiment with BT-549 breast; 1.36 µM in the experiment on CAKI-1 renal; 0.435 µM with NCI-H522 lung; 2.91 µM in the experiment on OVCAR-8 ovarian; 0.925 µM in the experiment with RPMI-8226 leukemia; 1.15 µM with SF-268 CNS. Besides, the GI50 in the experiment on SF-539 CNS was 0.847 µM; in the experiment on SNB-75 CNS, 0.557 µM; with SR leukemia it was 0.113 µM; in the experiment with SW-620 colon, 0.137 µM. Besides, the TGI was found to be 23 µM in the experiment with BT-549 breast; 25.3 µM with CAKI-1 renal; 13.4 µM in the experiment on NCI-H522 lung; 36.3 µM with OVCAR-8 ovarian; 52.3 µM with RPMI-8226 leukemia; 19.7 µM in the experiment with SF-268 CNS. Besides, the TGI was 5.11 µM in the experiment on SF-539 CNS, 9.32 µM in the experiment on SNB-75 CNS, 36 µM with SR leukemia and 16.2 µM in the experiment on SW-620 colon.
In the case of `Oc1ccc2ccccc2c1C(c1ccc(Cl)cc1)c1c(O)ccc2ccccc12`, the TGI in the experiment with BT-549 breast amounted to 14.1 µM; with CAKI-1 renal, 9.08 µM; with NCI-H522 lung it was 5.17 µM; in the experiment on OVCAR-8 ovarian, 19.9 µM; in the experiment with RPMI-8226 leukemia, 5.21 µM; with SF-268 CNS, 7.26 µM. Also, the TGI with SF-539 CNS was 31.4 µM; in the experiment on SNB-75 CNS it was 10.8 µM; with SR leukemia it was above 25.7 µM; in the experiment with SW-620 colon it was 18.4 µM.
Consider `Cc1cc(O)ccc1O`, for which the GI50 was 16.3 µM with BT-549 breast; 20.7 µM with CAKI-1 renal; 3.58 µM in the experiment on NCI-H522 lung; 32.7 µM with OVCAR-8 ovarian; 9.26 µM in the experiment on RPMI-8226 leukemia; 35.3 µM in the experiment on SF-268 CNS. Moreover, the GI50 was 15.3 µM in the experiment on SF-539 CNS, 24.1 µM with SNB-75 CNS, 19.4 µM in the experiment with SR leukemia and 20.7 µM in the experiment on SW-620 colon. In addition, the TGI is above 100 µM in the experiment on BT-549 breast; 57.4 µM with CAKI-1 renal; 18.8 µM in the experiment with NCI-H522 lung; above 100 µM in the experiment with OVCAR-8 ovarian; 89.7 µM with RPMI-8226 leukemia; above 100 µM with SF-268 CNS. In addition, the TGI is 29.6 µM in the experiment with SF-539 CNS, above 100 µM in the experiment with SNB-75 CNS, 76.6 µM in the experiment on SR leukemia and 38.6 µM with SW-620 colon.
Turning to `COc1cc(C(=O)N2CCN(c3ccccc3OC)CC2)c(N)cc1OCc1ccccc1`, the GI50 with BT-549 breast was 27.6 µM; in the experiment with CAKI-1 renal it was 37.9 µM; in the experiment on NCI-H522 lung it was 25.9 µM; in the experiment on OVCAR-8 ovarian, 38.3 µM; in the experiment on RPMI-8226 leukemia, 21.1 µM; in the experiment with SF-268 CNS, 43.8 µM. For the same compound, the GI50 in the experiment on SF-539 CNS is 45.3 µM; in the experiment with SNB-75 CNS, 42.6 µM; with SR leukemia, 22.5 µM; with SW-620 colon it was 41.1 µM. Also, the TGI is 66.8 µM in the experiment on BT-549 breast; above 100 µM in the experiment with CAKI-1 renal; 80.6 µM in the experiment with NCI-H522 lung; above 100 µM with OVCAR-8 ovarian; 49.2 µM in the experiment with RPMI-8226 leukemia; above 100 µM with SF-268 CNS. Further, the TGI was above 100 µM with SF-539 CNS, above 100 µM with SNB-75 CNS, 48.7 µM in the experiment on SR leukemia and above 100 µM in the experiment on SW-620 colon.
